# Data published in patent US20250381242A1 (INVAIO SCIENCES, INC., priority 2024, published 2025).
# No end group written: not given here.
# Columns and labels:
# A. tumefaciens = conditions: 24 h, 10 μM
# L. crescens = conditions: 10 μM
# E. coli = experiment: Bacterial growth inhibition by OD600 absorbance, E. coli; assay type: cell-based, E. coli (DH5-alpha); conditions: peptide 10 μM, 24 hours at 37° C., OD 600 nm
# How it was run: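 Percent inhibition was calculated from initial and 24 h OD600 readings against DMSO (0.1%) and antibiotic controls. Cultures received 10 μM peptide and were incubated at 30° C. (X. citri) or 37° C. (E. coli).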
# X. citri = experiment: Bacterial growth inhibition by OD600 absorbance, X. citri; assay type: cell-based, X. citri subsp. citri (ATCC 49118); conditions: peptide 10 μM, 24 hours at 30° C., OD 600 nm
# E. amylovora = conditions: 24 h, 10 μM
Sequence,"growth inhibition, A. tumefaciens (A. tumefaciens) [%]","growth inhibition, L. crescens (L. crescens) [%]","growth inhibition, E. coli (E. coli) [%]","growth inhibition, X. citri (X. citri) [%]","growth inhibition, E. amylovora (E. amylovora) [%]"
AWKETIRKYLKNEIKKKWRKAVIAW [compound 14],100.00,<90,100.00,100.00,100.00
GIGKLFLHAAKKFAKAFVAEKMNS [compound 36],100.00,<90,<90,100.00,100.00
KWKSFIKKLTKKFLHSAKKF [compound 49],100.00,<90,<90,100.00,100.00
GIKKFLKSAKKFVKAFK [compound 86],98.88,<90,<90,<90,100.00
GFGTILKALAKIAGKVVKKLATKPGATYMLKENLK [compound 7],100.00,<90,100.00,100.00,100.00
WLSKTAKKLWLSKTAKKLWLSKTAKKL [compound 15],<90,<90,<90,96.25,<90
INWKKIASIGKEVLKAL [compound 94],100.00,<90,<90,<90,100.00
LRFLKKALKKLF [compound 129],98.87,<90,<90,<90,93.29
GILSKLGKALKKAAKHAAKA [compound 82],<90,<90,<90,<90,100.00
FKRLEKLFKKIWNWK [compound 79],100.00,<90,<90,100.00,100.00
GLWSKIKTAGKSVAKAAAKAAVKAVTNAV [compound 28],100.00,<90,100.00,100.00,100.00
GWWRRTVDKVRNAGRKVAGFASKACGALGH [compound 13],100.00,100.00,100.00,100.00,100.00
GYNYAKKLANLAKKFANALW [compound 66],99.99,<90,<90,100.00,97.23
GLLKKWLKKWKEFKRIVGY [compound 57],99.99,<90,100.00,100.00,100.00
GWKDWAKKAGGWLKKKGPGMAKAALKAAMQ [compound 2],100.00,<90,<90,100.00,100.00
IWSFLIKAATKLLPSLFGGGKKDS [compound 39],<90,92.47,100.00,100.00,<90
WLNALLHHGYKRKFH [compound 93],<90,<90,<90,<90,<90
